The values that follow are results of earlier work, collected in US20140316796A1, “SYSTEMS, METHODS, AND COMPUTER-READABLE MEDIA FOR LIMITED DISTRIBUTION OF SPECIALTY DRUG USING A COMPUTER HUB OPERATING AT A SINGLE ACCESS POINT” (Jazz Pharmaceuticals, priority 2013, published 2014).

The conditions of series [1]: pH 4.
The conditions of series [2]: in vivo.

As for `CSCC[C@@H]1NC(=O)[C@H](CC(C)C)NC(=O)[C@H](CCCNC(=N)N)NC(=O)[C@H](CO)NC(=O)[C@@H]2CSSC[C@@H]3NC(=O)[C@H](CO)NC(=O)CNC(=O)[C@H]([C@@H](C)O)NC(=O)[C@H](CSSC[C@H](N)C(=O)N[C@@H](CCCCN)C(=O)NCC(=O)N[C@@H](CCCCN)C(=O)NCC(=O)N[C@@H](C)C(=O)N[C@@H](CCCCN)C(=O)N2)NC(=O)[C@H](CSSC[C@@H](C(N)=O)NC(=O)[C@H](CCCCN)NC(=O)CNC(=O)[C@H](CO)NC(=O)[C@H](CCCNC(=N)N)NC3=O)NC(=O)[C@H](CC(=O)O)NC(=O)[C@H](Cc2ccc(O)cc2)NC1=O` [ziconotide], in series [1], the “stabilisation by methionine-containing buffer” value is “effective in stabilizing ziconotide”. Moreover, in series [2], the addiction potential result is “does not have addiction potential”, the development of tolerance result is recorded as “tolerance does not appear to develop” and the “effect on respiratory function” value is recorded as “does not suppress respiratory function”.
